Test results reported in patent publication US8680159B2, “Bradykinin 1 receptor modulating compounds” (Gruenenthal GmbH, priority 2010, dated 2014).

Experiments:
[1] = biological target: T1, human B1R receptor (CHO K1 cells stably transfected with the human B1R gene) (Homo sapiens, UniProt P46663); test: Functional study on the bradykinin receptor 1 (B1R), Ca2+ fluorescence (Fluo-4) FLIPR/Novostar assay, hB1R cells; type: cell-based; settings: CHO-K1, read-out: % inhibition (human B1R) at 10 μM
T1 construct: expressed in transfected cells; host or cells: CHO K1 cells (Chinese hamster ovary), stably transfected
T1 sequence (P46663 1-353): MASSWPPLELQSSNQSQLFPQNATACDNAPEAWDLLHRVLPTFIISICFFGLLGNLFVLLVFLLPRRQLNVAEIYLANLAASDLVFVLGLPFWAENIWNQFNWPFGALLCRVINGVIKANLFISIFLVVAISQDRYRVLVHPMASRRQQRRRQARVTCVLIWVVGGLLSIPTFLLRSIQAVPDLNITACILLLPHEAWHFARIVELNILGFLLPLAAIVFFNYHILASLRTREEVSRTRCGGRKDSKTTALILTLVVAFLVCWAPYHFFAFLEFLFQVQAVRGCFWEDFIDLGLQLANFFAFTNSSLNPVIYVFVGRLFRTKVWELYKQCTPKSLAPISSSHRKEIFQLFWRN
How it was run: (§1)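 Ca2+ influx (Fluo-4, peak fluorescence, λex 488/λem 540 nm) was measured in CHO K1 lines expressing rat or human B1R. After a 10 μM test-compound pre-addition scoring % activation, cells received EC80 agonist: Des-Arg9-bradykinin for rat, Lys-Des-Arg9-bradykinin for human. Antagonism was expressed as % of maximum inhibition, with IC50 from varied concentrations.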

[2] = biological target: T2, B1R receptor of the rat (CHO K1 cells stably transfected with the B1R gene of the rat) (Rattus norvegicus, UniProt P97583); test: Functional study on the bradykinin receptor 1 (B1R), Ca2+ fluorescence (Fluo-4) FLIPR/Novostar assay, rB1R cells; type: cell-based; settings: CHO-K1, 10 μM, read-out: % inhibition (rat B1R) at 10 μM
T2 construct: expressed in transfected cells; host or cells: CHO K1 cells (Chinese hamster ovary), stably transfected
T2 sequence (P97583 1-337): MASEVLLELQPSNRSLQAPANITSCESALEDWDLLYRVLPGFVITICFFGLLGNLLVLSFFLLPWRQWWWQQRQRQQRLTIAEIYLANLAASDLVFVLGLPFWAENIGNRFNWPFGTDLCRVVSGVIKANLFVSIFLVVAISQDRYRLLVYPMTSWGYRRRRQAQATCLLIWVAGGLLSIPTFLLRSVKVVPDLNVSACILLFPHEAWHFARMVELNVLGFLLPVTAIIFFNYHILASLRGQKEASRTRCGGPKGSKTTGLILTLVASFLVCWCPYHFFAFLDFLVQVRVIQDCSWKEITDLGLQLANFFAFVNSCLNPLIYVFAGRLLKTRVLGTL
How it was run: as §1

| inhibition at 10 µM [1] | inhibition at 10 µM [2] | Compound |
| --- | --- | --- |
| 100% | 104% | Cc1cc(N2CCC(N(C)C(=O)c3ccc4c(c3)[C@H](N(C)C(=O)c3cccnc3C(F)(F)F)CC4)CC2)nc(C)n1 [Example H-171, N-[(1R)-6-[[1-(2,6-Dimethyl-pyrimidin-4-yl)-piperidin-4-yl]-methyl-carbamoyl]-2,3-dihydro-1H-inden-1-yl]-N-methyl-2-(trifluoromethyl)pyridine-3-carboxylic acid amide] |
| 89% | 104% | CN(C(=O)c1ccc2c(c1)[C@H](NC(=O)c1ccccc1Cl)CC2)C1CCN(c2nccn2C)CC1 [Example H-180, (3R)-3-[(2-Chloro-benzoyl)amino]-N-methyl-N-[1-(1-methyl-1H-imidazol-2-yl)-piperidin-4-yl]-2,3-dihydro-1H-indene-5-carboxylic acid amide] |
| 77% | 100% | Cc1cncc(N2CCC(N(C)C(=O)c3ccc4c(c3)[C@H](NC(=O)c3ccccc3Cl)CC4)CC2)n1 [Example H-181, (3R)-3-[(2-Chloro-benzoyl)amino]-N-methyl-N-[1-(6-methyl-pyrazin-2-yl)-piperidin-4-yl]-2,3-dihydro-1H-indene-5-carboxylic acid amide] |

Continued, compound first:

| Compound | inhibition at 10 µM [1] | inhibition at 10 µM [2] |
| --- | --- | --- |
| CC(C)N(C(=O)c1ccc2c(c1)[C@H](NC(=O)c1ccccc1Cl)CC2)C1CCN(c2ccncc2)CC1 [Example H-178, (3R)-3-[(2-Chloro-benzoyl)amino]-N-isopropyl-N-(1-pyridin-4-yl-piperidin-4-yl)-2,3-dihydro-1H-indene-5-carboxylic acid amide] | 100% | 101% |
| Cc1cc(N2CCC(N(C)C(=O)c3ccc4c(c3)[C@H](NC(=O)C(C)(C)F)CC4)CC2)ccn1 [Example H-179, (3R)-3-[(2-Fluoro-2-methyl-propanoyl)amino]-N-methyl-N-[1-(2-methyl-pyridin-4-yl)-piperidin-4-yl]-2,3-dihydro-1H-indene-5-carboxylic acid amide] | 94% | 100% |
| CN(C(=O)c1ccc2c(c1)[C@H](NC(=O)c1ccccc1Cl)CC2)C1CCN(c2ccncc2)C(=O)C1 (stereo partly drawn) [Example H-182, (3R)-3-[(2-Chloro-benzoyl)amino]-N-methyl-N-(2-oxo-1-pyridin-4-yl-piperidin-4-yl)-2,3-dihydro-1H-indene-5-carboxylic acid amide] | 15% | 59% |
| CN(C(=O)c1ccc2c(c1)[C@H](NC(=O)c1ccccc1Cl)CC2)C1CCN(c2ccncc2C(F)(F)F)CC1 [Example H-183, (3R)-3-[(2-Chloro-benzoyl)amino]-N-methyl-N-[1-[3-(trifluoromethyl)-pyridin-4-yl]-piperidin-4-yl]-2,3-dihydro-1H-indene-5-carboxylic acid amide] | 93% | 101% |
| CN(C)c1cc(C2CCC(N(C)C(=O)c3ccc4c(c3)[C@H](NC(=O)c3ccccc3Cl)CC4)CC2)ccn1 (stereo partly drawn) [Example H-184, (3R)-3-[(2-Chloro-benzoyl)amino]-N-[4-(2-dimethylamino-pyridin-4-yl)-cyclohexyl]-N-methyl-2,3-dihydro-1H-indene-5-carboxylic acid amide] | 72% | 105% |
| CN(C)c1cc(N2CCC(N(C)C(=O)c3ccc4c(c3)[C@H](N(C)C(=O)CCC3CCCC3)CC4)CC2)ccn1 [Example H-185, (3R)-3-(3-Cyclopentyl-propanoyl-methyl-amino)-N-[1-(2-dimethylamino-pyridin-4-yl)-piperidin-4-yl]-N-methyl-2,3-dihydro-1H-indene-5-carboxylic acid amide] | 100% | 105% |
| CN(C)c1nccc(N2CCC(N(C)C(=O)c3ccc4c(c3)[C@H](N(C)C(=O)CCC3CCCC3)CC4)CC2)n1 [Example H-186, (3R)-3-(3-Cyclopentyl-propanoyl-methyl-amino)-N-[1-(2-dimethylamino-pyrimidin-4-yl)-piperidin-4-yl]-N-methyl-2,3-dihydro-1H-indene-5-carboxylic acid amide] | 99% | 103% |
